Series [1] relates to suspension-cultured corn cells (var. Black Mexican Sweet). The series is described as follows: Growth inhibition of suspension-cultured corn cells. It is filed as cell-based, corn (maize). To be noted: four days.
The test system of a further series is excised wheat embryos. The series is described as follows: Wheat embryo germination inhibition. The following applies: in vivo. It is filed as in vivo, Triticum aestivum L. cv. Clark's Cream. The procedure: Grains of soft white wheat (Triticum aestivum L. cv. Clark's Cream) were used. For bioassay, embryos with some adhering endosperm and pericarp attached were cut from the grains with a razor blade. Analogs were prepared by dissolving into a minimal amount of DMSO to prepare a 0.1 M solution, and then diluted with […], pH 5.8, to 0.01, 0.1, 1, 10 and 100 μM. For each analog concentration six replicate germination assays were conducted on 10 embryos each at 30° C. Embryos were incubated in Petri dishes (100×15 mm) containing 6 ml solution.

The subject of series [2] is ABA-responsive cor6.6 promoter. The series is described as follows: ABA-inducible gene expression (GUS activity) in transgenic tobacco seedlings containing Pcor6.6-GUS. It is filed as in vivo, transgenic tobacco (promoter from Arabidopsis thaliana). To be noted: 24 hours (FIG. 15).
Description: The results shown are an average of duplicate assays on samples containing 34 seedlings.
The results shown are an average of duplicate samples containing cotyledons from 34 seedlings.
A further series concerns α-amylase activity. To be noted: Nakano et al. 1995; cited from earlier work.
The next series relates to lettuce seed. To be noted: Nakano et al. 1995; cited from earlier work.
The test system of series [3] is stomatal opening of spiderwort. The following applies: Nakano et al. 1995, cited from earlier work.
In the next series the test system is rice seedling leaves. The following applies: Nakano et al. 1995; cited from earlier work.
The test system of series [4] is suspension-cultured corn cells. The following applies: Balsevich et al 1994; cited from earlier work.
For series [5] the following is noted: background; cited from earlier work.
Series [6] deals with Interior spruce seedlings. The series is described as follows: Drought avoidance of transplanted spruce seedlings. Format: in vivo. An excerpt:
(§1) The ABA analog was applied as a spray-root drench that stimulated application through a nursery irrigation system. Seedlings with intact root-soil plugs were placed in a container, and ABA analog treatments were applied as a top drench. Treated seedlings were kept in the large container where the treatment flow-through was allowed to be re-absorbed into the plugs over a two day period. This ensured that all of the treatment was taken up by the root plugs and was available to seedlings. During testing, root-soil plugs were kept intact, enabling ABA analog treatments to be retained in close contact with the root system.
For this testing program, ABA analog #365 was applied at 10^-4, […] and 10^-3 M concentrations. Analogs were dissolved in an acetone solution (@ 1%) to prepare ABA analog treatments. In addition, there was a control treatment of acetone only @ 1%. The analog treatments were applied one time, two days before the start of experimental measurements. Each seedling received approximately 20 ml of either an analog or a control solution.
Just after treatment application, seedlings (n=75) were put through a rapid eight to fifteen day drought. Seedlings were watered to saturation during ABA analog application. After 24 to 48 hours, when all of the ABA analog solution was absorbed by the seedling root plug, root systems were enclosed in a plastic bag and placed in a darkened chamber with the shoot systems exposed to the above described controlled environment conditions. Seedlings were allowed to dry out through shoot transpiration. Gas exchange parameters (Pn, and gwv) of seedlings (n=8) from each treatment were measured during each daylight period. At each gas exchange measurement time, seedlings were measured with a pressure chamber to determine .psi., Changes in gas exchange parameters and seedling water balance were determined over time.
A study was conducted to determine how the ABA analog influenced seedling response to potentially lethal soil drought. It was hypothesized that ABA analogs limit water use and delay deleterious physiological conditions in seedlings under limited soil water availability. The ABA analog would allow seedlings to avoid a potentially lethal drought stress to survive and have normal morphological development.
Just after treatment application, seedlings (n=75) were put through a rapid drought. Over the drought, seedlings were measured with a pressure chamber to determine .psi..

Series [7] has as its system Interior spruce seedlings. In words: Growth of transplanted spruce seedlings. It is filed as in vivo.
Series [8] relates to Interior spruce seedlings. In words: Gas exchange of spruce seedlings. Format: in vivo. The following applies: optimum conditions; longer periods at higher concentrations (FIGS. 19-21).
Description: as §1
For this testing program, ABA analog #365 was applied at 10^-4, […] and 10^-3 M concentrations. Analogs were dissolved in an acetone solution (@ 1%) to prepare ABA analog treatments. In addition, there was a control treatment of acetone only @ 1%. The analog treatments were applied one time, two days before the start of experimental measurements. […]
Gas exchange parameters (net photosynthesis (Pn), needle conductance (gwv), water use efficiency-not reported) were determined on the seedlings treated with the ABA analog at each concentration (n=8). […] Gas exchange parameters were assessed 9 times across the first 20 days of the measurement period. Thereafter, gas exchange parameters were periodically assessed at 5 times from day 20 until the 52nd day of the measurement period.

Like-named read-outs stand apart in the source and are kept apart here.

Take `CC[C@@]1(C)CC(=O)C=C(C)[C@]1(O)/C=C/C(C)=C\C(=O)O` [(+)-8'-methyl ABA]: the “growth inhibition activity (comparison in words)” value in series [1] was “comparable to that produced by (+)-ABA”. Also, the “germination inhibitory activity, wheat embryos (in words)” value with excised wheat embryos was “more active than (+)-ABA”. Further, the “fold weaker than ABA as inducer of GUS” value in series [2] is recorded as “about 3 fold”. In addition, the “blocking of GA3 stimulated α-amylase activity” value in the series with α-amylase activity was “nearly as active as (+)-ABA”. Moreover, the “lettuce seed germination inhibition” value in the series on lettuce seed is “more active than (+)-ABA”. Besides, the “activity in stomatal opening” value in [3] is “more active than (+)-ABA”; in series [3] (listed as 8'-methyl analog), “only slightly weaker than ABA”. Besides, the “activity in elongation of rice seedling leaves” value with rice seedling leaves is “more active than (+)-ABA”.

As for `CC(=C/C(=O)O)/C=C/[C@]1(O)[C@@]2(C)CO[C@]1(C)CC(=O)C2` [Phaseic acid, phaseic acid], the “shift (elevation) in pH of the medium (literature)” value in series [4] is “not produced by PA”. The “activity in most assays” value in [5] is given as “little or no activity in most assays”.

On to Methyl 8'-methylene ABA [PBI-365], for which the “drought avoidance capability, dependence on treatment concentration” value in series [6] (FIG. 17) is given as “improved with higher treatment concentrations”. Further, in [6] (drought conditions), the needle conductance entry was “reduction in needle conductance” and the seedling water balance entry was “improved seedling water balance under drought conditions”. Moreover, the drought avoidance capability entry in [6] (range of drought conditions) was “excellent drought avoidance capability”. In [7] (moderate and severe drought conditions), the “effect on seedling growth” value is listed as “no definitive effect on seedling growth”. The “effect on seedling growth” value in series [7] (near lethal drought conditions) is “positive influence on growth”. In addition, in [7] (optimum soil moisture conditions (FIG. 18)), the “long term effects on growth” value is reported as “no long term negative effects on growth”. In series [8], the “duration of reduction in gas exchange capability” value is on record as “one to three”.

The values are drawn from patent publication US6004905A, “Hyperabas: biologically active abscisic acid analogs with unsaturated carbon substituents at the 8'-methyl or 9'-methyl carbon atoms” (National Research Council of Canada, priority 1998, dated 1999).
